Patent US20210186982A1, “METHODS AND COMPOSITIONS FOR TREATING MELANOMA” (UNIVERSITE NICE SOPHIA ANTIPOLIS, priority 2017, published 2021)

What was measured:
[1] = test system: melanoma cell cultures; experiment: Cytotoxicity of b-AP15 in presence of NAC or pan-caspase inhibitor; format: cell-based, human; settings: co-incubation with b-AP15
[2] = test system: A375 and Me1501 cells; experiment: Cytotoxicity, cytotox green reagent (IncuCyte); format: cell-based, human; settings: 72 h; compared with b-AP15
Method: FIG. 8. USP14 inhibition induces growth inhibition and cytotoxicity on melanoma cell lines. (A) Growth curve of A375 treated with 2 μM b-AP15, 2 μM VLX1570 or […] bortezomib (BTZ). Data were acquired in triplicate during 3 days using an IncuCyte Zoom. (B) and (C) Cytotoxic effects of USP14 inhibition on melanoma cells. A375 and Me1501 cells were treated with the indicated doses of b-AP15 or VLX1570, and stained with cytotox green reagent (100 nM). Cytotoxicity was monitored in triplicate for 72 h with an IncuCyte imaging system.

[3] = target: T1, UCHL5 (Homo sapiens, UniProt Q9Y5K5); experiment: DUB trap assay (HA-Ub-VS probe, anti-UCHL5 immunoblot); format: cell-based
T1 construct: 20 μg of protein extracts were incubated for 25 min at 37° C. with 2 μM HA-Ub-VS; endogenous in cells; host or cells: A375 melanoma cells; cell lysates
T1 sequence (Q9Y5K5 whole entry): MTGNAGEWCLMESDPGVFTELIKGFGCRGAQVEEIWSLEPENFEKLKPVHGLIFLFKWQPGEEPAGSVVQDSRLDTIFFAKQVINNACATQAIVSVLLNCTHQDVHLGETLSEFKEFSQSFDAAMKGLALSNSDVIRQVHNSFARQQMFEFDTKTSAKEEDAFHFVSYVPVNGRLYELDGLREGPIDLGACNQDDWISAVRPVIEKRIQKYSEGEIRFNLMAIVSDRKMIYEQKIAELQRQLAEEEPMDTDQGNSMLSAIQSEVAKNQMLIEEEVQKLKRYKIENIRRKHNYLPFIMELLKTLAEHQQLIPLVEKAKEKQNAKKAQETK
Method: (§1) Cells were harvested, washed with PBS and pellets were dried then freezed (−80° C.) and subsequently lysed in ice-cold buffer containing 50 mM Tris (pH 7.4), 5 mM MgCl2, 250 mM sucrose, 1 mM DTT, 2 mM ATP, and 1 mM PMSF and mild sonication. Lysates were cleared by centrifugation, and 20 μg of protein extracts were incubated for 25 min at 37° C. with 2 μM HA-Ub-VS (Boston Biochem, Cambridge, Mass.). After boiling in reducing sample buffer, labelled cell lysates were subjected to immunoblot analysis as described above using the indicated antibodies.

[4] = target: T2, USP14 (Homo sapiens, UniProt P54578); experiment: DUB trap assay (HA-Ub-VS probe, anti-USP14 immunoblot); format: cell-based; settings: A375 melanoma cells
T2 construct: endogenous in cells; host or cells: A375 (also 1205Lu, 501Mel, SKMel28, 451Lu) melanoma cells; cell lysates
T2 sequence (P54578 whole entry): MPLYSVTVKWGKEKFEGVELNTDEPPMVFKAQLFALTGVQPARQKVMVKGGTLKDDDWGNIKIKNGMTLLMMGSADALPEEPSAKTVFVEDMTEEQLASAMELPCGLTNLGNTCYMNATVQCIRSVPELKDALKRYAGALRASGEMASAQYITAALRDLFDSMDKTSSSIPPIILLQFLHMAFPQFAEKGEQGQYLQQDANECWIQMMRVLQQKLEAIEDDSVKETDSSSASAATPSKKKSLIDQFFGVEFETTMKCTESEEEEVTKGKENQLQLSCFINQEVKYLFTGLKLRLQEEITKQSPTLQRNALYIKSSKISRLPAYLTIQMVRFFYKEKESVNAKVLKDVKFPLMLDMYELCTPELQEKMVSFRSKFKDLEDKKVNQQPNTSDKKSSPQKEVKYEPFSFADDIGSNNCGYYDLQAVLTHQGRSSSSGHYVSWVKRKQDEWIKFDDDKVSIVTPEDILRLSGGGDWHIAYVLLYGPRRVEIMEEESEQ
Method: as §1

[5] = test system: A375 cells; experiment: ROS production (CM-H2DCFDA, flow cytometry); format: cell-based, human; settings: 5 mM NAC with 2 μM b-AP15
Method: ROS levels were measured using the redox-sensitive dye CM-H2DCFDA (Thermo Fischer Scientific). After treatment, cells were stained with 10 μM CM-H2DCFDA in PBS for 30 min at 37° C. Cells were washed with PBS and resuspended in PBS 5 mM EDTA/1% BSA. ROS production was analysed using a MACSQuant® Analyzer 10 cytometer (Miltenyi Biotech).

[6] = Annexin-V-FITC/7-AAD flow cytometry, cell viability; format: cell-based; settings: human, A375 cells; solvent 87%
Method: Cell death was evaluated by flow cytometry following staining with Annexin-V-FITC and 7-AAD (eBiosciences) as previously described 24.

[7] = test system: A375; experiment: MTS conversion assay, melanoma cell proliferation; format: cell-based, human; settings: 24 h; increasing doses up to 10 μM
Method: Cell proliferation was measured by a MTS conversion assay using the CellTiter 96® Aqueous Non-Radioactive Cell Proliferation kit (Promega, Madison Wis.) according to the manufacturer instructions. Cells were seeded in 96-well plates (5×10^4 cells/well) and treated with different reagents for the indicated times and incubated at 37° C. with MTS reagent. The optical density of each sample at 490 nm was determined with a Multiskan FC plate reader (Thermo Fisher Scientific, Waltham, Mass. USA).

## CC(C)[C@H](NC(=O)c1ccc2ccccc2n1)C(=O)N[C@@H](CC(=O)O)C(=O)COc1c(F)cccc1F [QVD-OPh]
[1]
  effect on cytotoxicity of b-AP15: did not prevent the cytotoxic action of b-AP15

## C=CC(=O)N1CC/C(=C\c2ccc(F)c([N+](=O)[O-])c2)C(=O)/C(=C/c2ccc(F)c([N+](=O)[O-])c2)C1 [VLX1570]
[2]
  melanoma cell death: induced to similar levels
[3]
  UCHL5 activity (UCHL5-Ub-HA) in A375 cells: not UCHL5
[4]
  USP14 activity (USP14-Ub-HA) in A375 cells: blocked USP14

## CC(=O)N[C@@H](CS)C(=O)O [NAC, N-acetyl-L-cysteine]
[5]
  effect on b-AP15-triggered burst of ROS: inhibited
[1]
  effect on cytotoxicity of b-AP15: blocked

## CN[C@@H]1C[C@H]2O[C@@](C)([C@@H]1OC)n1c3ccccc3c3c4c(c5c6ccccc6n2c5c31)C(=O)NC4 [staurosporine]
[6]
  viability: 56%

## N#Cc1nc2c(nc1C#N)-c1ccc(Cl)cc1C2=O [HBX41108]
[7]
  cell proliferation of A375 cells (MTS): drastically decreased cell proliferation

## CCC[C@H](NC(=O)/C(C#N)=C/c1cccc(Br)n1)c1ccccc1 [WP1130]
[7]
  cell proliferation of A375 cells (MTS): drastically decreased cell proliferation
